Test results from patent US11767320B2, “Bicyclic dione compounds as inhibitors of KRAS” (INCYTE CORPORATION, priority 2020, dated 2023).

biological target: KRAS G12C (Homo sapiens, UniProt P01116, G12C); assay: GDP-GTP exchange assay (fluorescence based guanine nucleotide exchange, bodipy-GDP for GppNHp, SOS1); format: biochemical; conditions: bodipy-loaded KRAS G12C, 2 hours pre-incubation with inhibitor, read-out: G12C_exchange (KRAS_G12C exchange assay IC50)
Method: The inhibitor potency of the exemplified compounds was determined in a fluorescence based guanine nucleotide exchange assay, which measures the exchange of bodipy-GDP (fluorescently labeled GDP) for GppNHp (Non-hydrolyzable GTP analog) to generate the active state of KRAS in the presence of SOS1 (guanine nucleotide exchange factor). Inhibitors were serially diluted in DMSO and a volume of 0.1 μL was transferred to the wells of a black low volume 384-well plate. 5 μL/well volume of bodipy-loaded KRAS G12C diluted to 5 nM in assay buffer (25 mM Hepes pH 7.5, 50 mM NaCl, 10 mM MgCl2 and 0.01% Brij-35) was added to the plate and pre-incubated with inhibitor for 2 hours at ambient temperature. Appropriate controls (enzyme with no inhibitor or with a G12C inhibitor (AMG-510)) were included on the plate. The exchange was initiated by the addition of a 5 μL/well volume containing 1 mM GppNHp and 300 nM SOS1 in assay buffer. The 10 μL/well reaction concentration of the bodipy-loaded KRAS G12C, GppNHp, and SOS1 were 5-25 nM, 500 uM, and 150 nM, respectively. The reaction plates were incubated at ambient temperature for 2 hours, a time estimated for complete GDP-GTP exchange in the absence of inhibitor. For the KRAS G12D and G12V mutants, similar guanine nucleotide exchange assays were used with 2.5 nM as final concentration for the bodipy loaded KRAS proteins and with 4 hours and 3 hours incubation after adding GppNHp-SOS1 mixture for G12D and G12V, respectively. A cyclic peptide described to selectively bind G12D mutant (Sakamoto et al., BBRC 484.3 (2017), 605-611) or internal compounds with confirmed binding were used as positive controls in the assay plates. Fluorescence intensities were measured on a PheraStar plate reader instrument (BMG Labtech) with excitation at 485 nm and emission at 520 nm.
Either GraphPad prism or XLfit was used to analyze the data. The IC50 values were derived by fitting the data to a four parameter logistic equation producing a sigmoidal dose-response curve with a variable Hill coefficient. Prism equation: Y=Bottom+(Top−Bottom)/(1+10^((Log IC50−X)*Hill slope)); XLfit equation: Y=(A+((B−A)/(1+((X/C)^D)))) where X is the logarithm of inhibitor concentration and Y is the response.

Sequence of KRAS G12C (P01116 1-188 isoform P01116-2 G12C): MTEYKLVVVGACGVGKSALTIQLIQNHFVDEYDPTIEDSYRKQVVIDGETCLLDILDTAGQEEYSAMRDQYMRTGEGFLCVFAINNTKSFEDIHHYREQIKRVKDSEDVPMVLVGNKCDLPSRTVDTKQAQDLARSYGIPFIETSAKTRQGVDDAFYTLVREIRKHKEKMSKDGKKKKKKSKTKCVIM

Compound | IC50 [nM]
C=CC(=O)N1CCC(n2c(=O)c(=O)n(-c3c(CC)cccc3CC)c3nc(-c4ccccc4F)c(Cl)cc32)CC1 [Example 1, 1-(1-acryloylpiperidin-4-yl)-7-chloro-4-(2,6-diethylphenyl)-6-(2-fluorophenyl)-1,4-dihydropyrido[2,3-b]pyrazine-2,3-dione] | 5000 to 10000
C=CC(=O)N1CCC(n2c(=O)c(=O)n(-c3c(CC)cccc3CC)c3nc(-c4c(O)cccc4F)c(Cl)cc32)CC1 [Example 2, 1-(1-acryloylpiperidin-4-yl)-7-chloro-4-(2,6-diethylphenyl)-6-(2-fluoro-6-hydroxyphenyl)-1,4-dihydropyrido[2,3-b]pyrazine-2,3-dione] | 1000 to 5000
C=CC(=O)N1CC(Cn2c(=O)c(=O)n(-c3c(C(C)C)cccc3C(C)C)c3nc(-c4ccccc4F)c(Cl)cc32)C1 [Example 3, 1-((1-acryloylazetidin-3-yl)methyl)-7-chloro-4-(2,6-diisopropylphenyl)-6-(2-fluorophenyl)-1,4-dihydropyrido[2,3-b]pyrazine-2,3-dione] | 100 to 1000
C=CC(=O)N1CC(Cn2c(=O)c(=O)n(-c3c(CC)cccc3CC)c3nc(-c4ccccc4F)c(Cl)cc32)C1 [Example 4, 1-((1-acryloylazetidin-3-yl)methyl)-7-chloro-4-(2,6-diethylphenyl)-6-(2-fluorophenyl)-1,4-dihydropyrido[2,3-b]pyrazine-2,3-dione] | 100 to 1000
C=CC(=O)N1CC(F)(Cn2c(=O)c(=O)n(-c3c(C)ccnc3C(C)C)c3nc(-c4cccc5cn[nH]c45)c(Cl)cc32)C1 [Example 29, 1-((1-acryloyl-3-fluoroazetidin-3-yl)methyl)-7-chloro-6-(1H-indazol-7-yl)-4-(2-isopropyl-4-methylpyridin-3-yl)-1,4-dihydropyrido[2,3-b]pyrazine-2,3-dione] | 100 to 1000
C=CC(=O)N1CC(F)(Cn2c(=O)c(=O)n(-c3c(C)ccnc3C(C)C)c3nc(-c4cccnc4N)c(Cl)cc32)C1 [Example 31, 1-((1-acryloyl-3-fluoroazetidin-3-yl)methyl)-6-(2-aminopyridin-3-yl)-7-chloro-4-(2-isopropyl-4-methylpyridin-3-yl)-1,4-dihydropyrido[2,3-b]pyrazine-2,3-dione] | 100 to 1000
C=CC(=O)N1CC(O)(Cn2c(=O)c(=O)n(-c3c(C)ccnc3C(C)C)c3nc(-c4ccccc4F)c(Cl)cc32)C1 [Example 43, 1-((1-acryloyl-3-hydroxyazetidin-3-yl)methyl)-7-chloro-6-(2-fluorophenyl)-4-(2-isopropyl-4-methylpyridin-3-yl)-1,4-dihydropyrido[2,3-b]pyrazine-2,3-dione] | 100 to 1000
C=CC(=O)N1CC(O)(Cn2c(=O)c(=O)n(-c3c(C)ccnc3C(C)C)c3nc(-c4c(O)cc(C)cc4F)c(Cl)cc32)C1 [Example 46, 1-((1-acryloyl-3-hydroxyazetidin-3-yl)methyl)-7-chloro-6-(2-fluoro-6-hydroxy-4-methylphenyl)-4-(2-isopropyl-4-methylpyridin-3-yl)-1,4-dihydropyrido[2,3-b]pyrazine-2,3-dione] | 100 to 1000
[2H]C([2H])(n1c(=O)c(=O)n(-c2c(C)ccnc2C(C)C)c2nc(-c3c(O)cccc3Cl)c(Cl)cc21)C1(F)CN(C(=O)C=C)C1 [Example 49, 1-((1-acryloyl-3-fluoroazetidin-3-yl)methyl-d2)-7-chloro-6-(2-chloro-6-hydroxyphenyl)-4-(2-isopropyl-4-methylpyridin-3-yl)-1,4-dihydropyrido[2,3-b]pyrazine-2,3-dione] | ≤ 100
[2H]C([2H])(n1c(=O)c(=O)n(-c2c(C)ccnc2C(C)C)c2nc(-c3c(O)cccc3Cl)c(Cl)cc21)C1(F)CN(C(=O)C(=C)F)C1 [Example 50, 7-chloro-6-(2-chloro-6-hydroxyphenyl)-1-((3-fluoro-1-(2-fluoroacryloyl)azetidin-3-yl)methyl-d2)-4-(2-isopropyl-4-methylpyridin-3-yl)-1,4-dihydropyrido[2,3-b]pyrazine-2,3-dione] | ≤ 100
[2H]C([2H])(n1c(=O)c(=O)n(-c2c(C)ccnc2C(C)C)c2nc(-c3cncc(C)c3C)c(Cl)cc21)C1(F)CN(C(=O)C=C)C1 [Example 52, 1-((1-acryloyl-3-fluoroazetidin-3-yl)methyl-d2)-7-chloro-6-(4,5-dimethylpyridin-3-yl)-4-(2-isopropyl-4-methylpyridin-3-yl)-1,4-dihydropyrido[2,3-b]pyrazine-2,3-dione] | 1000 to 5000

The remaining lines, values ahead:

IC50 [nM] | Compound
1000 to 5000 | C=CC(=O)N1CC(Cn2c(=O)c(=O)n(-c3c(C(C)C)cccc3C(C)C)c3nc(-c4cccc5ccccc45)c(Cl)cc32)C1 [Example 6, 1-((1-acryloylazetidin-3-yl)methyl)-7-chloro-4-(2,6-diisopropylphenyl)-6-(1-naphthyl)-1,4-dihydropyrido[2,3-b]pyrazine-2,3-dione]
100 to 1000 | C=CC(=O)N1CC(F)(Cn2c(=O)c(=O)n(-c3c(C)ccnc3C(C)C)c3nc(-c4c(F)ccc(O)c4O)c(Cl)cc32)C1 [Example 26, 1-((1-acryloyl-3-fluoroazetidin-3-yl)methyl)-7-chloro-6-(6-fluoro-2,3-dihydroxyphenyl)-4-(2-isopropyl-4-methylpyridin-3-yl)-1,4-dihydropyrido[2,3-b]pyrazine-2,3-dione]
100 to 1000 | C=CC(=O)N1CC(F)(Cn2c(=O)c(=O)n(-c3c(C)ccnc3C(C)C)c3nc(-c4cccc5nn[nH]c45)c(Cl)cc32)C1 [Example 30, 1-((1-acryloyl-3-fluoroazetidin-3-yl)methyl)-6-(1H-benzo[d][1,2,3]triazol-7-yl)-7-chloro-4-(2-isopropyl-4-methylpyridin-3-yl)-1,4-dihydropyrido[2,3-b]pyrazine-2,3-dione]
100 to 1000 | C=CC(=O)N1CC(F)(Cn2c(=O)c(=O)n(-c3c(C)ccnc3C(C)C)c3nc(-c4cccc5ccc(=O)[nH]c45)c(Cl)cc32)C1 [Example 32, 1-((1-acryloyl-3-fluoroazetidin-3-yl)methyl)-7-chloro-4-(2-isopropyl-4-methylpyridin-3-yl)-6-(2-oxo-1,2-dihydroquinolin-8-yl)-1,4-dihydropyrido[2,3-b]pyrazine-2,3-dione]
100 to 1000 | C=CC(=O)N1CC(Cn2c(=O)c(=O)n(-c3c(C)ccnc3C(C)C)c3nc(-c4ccccc4F)c(Cl)cc32)(OC)C1 [Example 41, 1-((1-acryloyl-3-methoxyazetidin-3-yl)methyl)-6-(2-fluorophenyl)-7-chloro-4-(2-isopropyl-4-methylpyridin-3-yl)-1,4-dihydropyrido[2,3-b]pyrazine-2,3-dione]
100 to 1000 | C=CC(=O)N1CC(O)(Cn2c(=O)c(=O)n(-c3c(C)ccnc3C(C)C)c3nc(-c4c(F)ccc(F)c4O)c(Cl)cc32)C1 [Example 44, 1-((1-acryloyl-3-hydroxyazetidin-3-yl)methyl)-7-chloro-6-(3,6-difluoro-2-hydroxyphenyl)-4-(2-isopropyl-4-methylpyridin-3-yl)-1,4-dihydropyrido[2,3-b]pyrazine-2,3-dione]
≤ 100 | [2H]C([2H])(n1c(=O)c(=O)n(-c2c(C)ccnc2C(C)C)c2nc(-c3c(O)cc(C)cc3F)c(Cl)cc21)C1(F)CN(C(=O)C=C)C1 [Example 48, 1-((1-acryloyl-3-fluoroazetidin-3-yl)methyl-d2)-7-chloro-6-(2-fluoro-6-hydroxy-4-methylphenyl)-4-(2-isopropyl-4-methylpyridin-3-yl)-1,4-dihydropyrido[2,3-b]pyrazine-2,3-dione]
